One data set relates to HCT116. The data set can be described thus: Cytotoxicity, Alamar Blue assay. Type of data set: cell-based, human. The settings on record: 72 h drug exposure, one value per biological replicate. The protocol:
(§1) Cells were plated in 96-well plates and exposed to a drug concentration range for 72 h. Alamar Blue was added to the cells and allowed to incubate for 2–4 h at 37 °C. Plates were analyzed using a plate reader with fluorescence measured at 560 nm. Fractional survival was normalized to untreated control cell fluorescent values. Drug IC50 was calculated using Prism software (GraphPad, La Jolla, CA). Cell viability, cytotoxicity and apoptosis were also measured by ApoTox-Glo Triplex Assay (Promega).

The test system of another data set is A549. The data set can be described thus: Cytotoxicity, Alamar Blue assay. The settings on record: 72 h drug exposure, one value per biological replicate. Format: cell-based, human. The protocol:
as §1
A general note: Resazurin is reduced to fluorescent resorufin, in cell work by metabolically active cells.

Another data set deals with LL2. The data set can be described thus: Cytotoxicity, Alamar Blue assay. Type of data set: cell-based, murine. The protocol:
(§2) Murine colorectal (MC38 (ENH204-FP)) cancer cell lines were obtained from Kerafast. Murine head and neck MOC1 and MOC2 were generously provided by Dr. R. Uppaluri. CAL27 PIK3CA H1047R expressing cells and 4MOSC1 cells were generated in Dr. Gutkind’s laboratory and previously characterized[42],[55]. […] MC38 cells were cultured in DMEM supplemented with 10% FBS, 1 mM sodium pyruvate (Gibco), 1% non-essential amino acids (Gibco), and 10 mM HEPES (Gibco). MOC1 and MOC2 cells were cultured in IMDM (Lonza)/F-12K nutrient mixture at a 2:1 mixture with 5% FBS, 5 ng/ml EGF (EMD Millipore), 400 ng/ml hydrocortisone (Sigma), and […] insulin (Sigma). On receipt, each cell line was expanded, cryopreserved as low passage stocks, and routinely tested for mycoplasma. Cisplatin (Enzo Biosciences), paclitaxel (Sigma), and MMAE (Concortis) were reconstituted in DMSO. Clinical-grade CDX3379 was provided by Celldex. Clinical grade cetuximab (Erbitux, Lilly Medical) was obtained from UCSD Moores Cancer Center Pharmacy.
as §1

The subject of another data set is MC38. Briefly: Cytotoxicity, Alamar Blue assay. Type of data set: cell-based, murine. The protocol: as §2, §1
The next data set concerns 4MOSC1. Briefly: Cytotoxicity, Alamar Blue assay. Format: cell-based, murine. The procedure: as §2, §1
For the next data set, the system named is B16. Briefly: Cytotoxicity, Alamar Blue assay. Format: cell-based, murine. The protocol: as §2, §1
The test system of a further data set is Detroit 562. Briefly: Cytotoxicity, Alamar Blue assay. Type of data set: cell-based, human. The procedure: as §2, §1
A further data set concerns CAL27. The data set can be described thus: Cytotoxicity, Alamar Blue assay. Format: cell-based, human. The procedure: as §2, §1
For a further data set, the system named is MOC2. The data set can be described thus: Cytotoxicity, Alamar Blue assay. Type of data set: cell-based, murine. The procedure:
as §2, with “Clinical-grade CDX3379 was provided by Celldex.” left out
as §1
(§3) measured by Alamar Blue assay. For Alamar Blue assay cytotoxicity, we measured cell viability at 72 hr of […]

The subject of another data set is MOC1. Briefly: Cytotoxicity, Alamar Blue assay. Format: cell-based, murine. The procedure: as §2, with “Clinical-grade CDX3379 was provided by Celldex.” left out
as §1, §3

The subject of data set [1] is melanoma and lung cancer models. Conditions: without radiotherapy; cited from earlier work. An excerpt: In the last decade, therapeutics targeting immune checkpoint inhibitors (i.e., CTLA-4, PD-1, and PD-L1) have revolutionized cancer care for subsets of oncology patients[24],[25]. There is tremendous interest in developing strategies to further improve immune checkpoint inhibitor responses to wider patient populations. To achieve increasing therapeutic precision, integrating the specificity of ADC with inherent targeting of radiotherapy and immunotherapy is appealing. […] U3-1402 is a HER3-targeted ADC with a topoisomer ...

For data set [2] the following is noted: cited from earlier work.
A further data set deals with B16 tumors. Briefly: Subcutaneous tumor therapy, CDX3379-MMAE or CDX3379-MMAF with IR, mouse survival. Type of data set: in vivo, C57BL/6 mice.

“And” between values parts separate entries of the source, which are not always exact repeats. Equal entries are not always repeated. “Also recorded” adds a separate entry of the source. Where two headings read alike, the source gives them in different places. Non-standard residues stand in square brackets, D forms with d. Residues, ends and D or L forms follow the SMILES beside them. Dolaproine = CO[C@@H]([C@@H]1CCCN1)[C@@H](C)C(=O)O; Dil = CC[C@H](C)[C@H](NC)[C@@H](CC(=O)O)OC; NMeV = CN[C@H](C(=O)O)C(C)C

Method for B16 tumors: MOC1, B16, LL/2, and MC38 tumor cells were injected subcutaneously into the hindlimbs of 6-week-old female C57BL/6 albino mice in 100 µl of 1:1 Matrigel (BD) and PBS solution. Fractionated IR was delivered focally to the tumor-bearing hindlimbs (3 Gy to MC38 tumors and 5 Gy to LL/2 and B16 tumors) as indicated in figure legends using a PXI X-RAD 225 XL irradiator at maximal dose rate of 3 Gy/min with a beam-conditioning aluminum filter (Precision X-ray Irradiation). For RAG1 KO studies, 6-week-old female Rag1^tm1Mom mice were injected subcutaneously with tumor cells in their hindlimbs (Jackson Labs). For CD8 depletion studies, mice were i.p. injected with anti-CD8 (BioXCell #BE0117) at 10 mg/kg on days −6, −5 and −4 tumor cell implant and then weekly starting on day after tumor cells were injected or control antibody. […] Tumor volumes were measured and calculated using the formula as ½ * length * width^2. Mice were sacrificed when tumor volume reached >1500 mm^3, maximal tumor volume approved on our protocol for subcutaneous tumors.

Turning to `N.N.[Cl][Pt][Cl]` [Cisplatin], the IC50 – broadly, the point on the concentration scale where inhibition reaches its midpoint – with HCT116 is 42200 nM and 55500 nM; with A549 it was 22600 nM and 27200 nM and 13600 nM and 15400 nM; in the data set on LL2 (LL2, 72 h drug exposure, one value per biological replicate, read-out: IC50 values) it was 1080 nM and 745 nM; in the data set on MC38 (MC38, 72 h drug exposure, one value per biological replicate, read-out: IC50 values), 3640 nM and 3830 nM; in the data set with 4MOSC1 (4MOSC1, 72 h drug exposure, one value per biological replicate, read-out: IC50 values), 1370 nM and 1460 nM; in the data set with B16 (B16, 72 h drug exposure, one value per biological replicate, read-out: IC50 values) it was 3770 nM and 4490 nM. For the same molecule, the 50% inhibitory concentration (IC50) in the data set with Detroit 562 (Detroit 562, 72 h drug exposure, one value per biological replicate, read-out: IC50 values) was 11500 nM and 9550 nM and 10400 nM and 11800 nM; with CAL27 (72 h drug exposure, one value per biological replicate, read-out: IC50 values) it was 3650 nM and 3760 nM and 7310 nM and 8270 nM and 7270 nM and 6950 nM; in the data set on MOC2 (MOC2, 72 h drug exposure, one value per biological replicate, read-out: IC50 values), 8750 nM and 9990 nM; with MOC1 (MOC1; 72 h drug exposure, Alamar Blue; one value per biological replicate; read-out: IC50 values) it was 13700 nM and 15300 nM and 10400 nM and 10700 nM.
Take “Enapotamab vedotin: AXL-targeted ADC conjugate with an MMAE warhead”: in data set [1], the “survival and tumor control” value is “prolonged mouse survival; also recorded: failed to generate durable tumor control”.
With `CC(=O)O[C@H]1C(=O)[C@@]2(C)[C@H]([C@H](OC(=O)c3ccccc3)[C@]3(O)C[C@H](OC(=O)[C@H](O)[C@@H](NC(=O)c4ccccc4)c4ccccc4)C(C)=C1C3(C)C)[C@]1(OC(C)=O)CO[C@@H]1C[C@@H]2O` [Paclitaxel], the IC50 was 2.04 nM and 8.38 nM and 12.4 nM and 9.33 nM in the data set with HCT116; 23.3 nM and 15.1 nM in the data set on A549; 16.6 nM in the data set on A549 (Homo sapiens, A549, 72 h); 15.3 nM in the data set with LL2 (Mus musculus, LL/2, 72 h, read-out: IC50 values, LL2, 72 h drug exposure, one value per biological replicate); 16.6 nM in the data set on LL2 (read-out: IC50 values, LL2, 72 h drug exposure, one value per biological replicate); 67 nM with MC38 (Mus musculus, MC-38, 72 h, read-out: IC50 values, MC38, 72 h drug exposure, one value per biological replicate). The half-inhibitory concentration (IC50) in the data set on MC38 (read-out: IC50 values, MC38, 72 h drug exposure, one value per biological replicate) was 75.7 nM; with 4MOSC1 (Mus musculus, 72 h, read-out: IC50 values, 4MOSC1, 72 h drug exposure, one value per biological replicate), 7.65 nM; in the data set on 4MOSC1 (read-out: IC50 values, 4MOSC1, 72 h drug exposure, one value per biological replicate) it was 12.9 nM; in the data set with B16 (Mus musculus, B16, 72 h, read-out: IC50 values, B16, 72 h drug exposure, one value per biological replicate), 6.1 nM; in the data set with B16 (read-out: IC50 values, B16, 72 h drug exposure, one value per biological replicate), 7.8 nM; in the data set with Detroit 562 (Homo sapiens, Detroit 562, 72 h, read-out: IC50 values, Detroit 562, 72 h drug exposure, one value per biological replicate), 5.71 nM. The IC50 with Detroit 562 (read-out: IC50 values, Detroit 562, 72 h drug exposure, one value per biological replicate) was 5.94 nM and 3.87 nM and 4.75 nM; with CAL27 (read-out: IC50 values, 72 h drug exposure, one value per biological replicate), 1.4 nM and 1.52 nM and 3.46 nM and 4.62 nM and 3.12 nM and 3.36 nM; in the data set on MOC2 (Mus musculus, 72 h, read-out: IC50 values, MOC2, 72 h drug exposure, one value per biological replicate), 43.5 nM; with MOC2 (read-out: IC50 values, MOC2, 72 h drug exposure, one value per biological replicate) it was 56.4 nM; in the data set with MOC1 (read-out: IC50 values; MOC1; 72 h drug exposure, Alamar Blue; one value per biological replicate), 45.4 nM and 54.2 nM and 26.8 nM and 24.6 nM.
`CC[C@H](C)[C@@H]([C@@H](CC(=O)N1CCC[C@H]1[C@H](OC)[C@@H](C)C(=O)N[C@@H](Cc1ccccc1)C(=O)O)OC)N(C)C(=O)[C@@H](NC(=O)[C@@H](NC)C(C)C)C(C)C` [MMAF, monomethyl auristatin F] (H-[NMeV]V[Dil][Dolaproine]F-OH): the “cell permeability as free drug” value in data set [2] is given as “reduced cell permeability compared to MMAE”.

B1: CDX3379-MMAF: anti-HER3 antibody CDX3379 conjugated to MMAF via MC-VC-PABC linker (conjugate, chains of the INN, looked up)
VH: EVQLLESGGGLVQPGGSLRLSCAASGFTFSSYAMSWVRQAPGKGLEWVSAINSQGKSTYYADSVKGRFTISRDNSKNTLYLQMNSLRAEDTAVYYCARWGDEGFDIWGQGTLVTVSS
VL: DIQMTQSPSSLSASVGDRVTITCRASQGISNWLAWYQQKPGKAPKLLIYGASSLQSGVPSRFSGSGSGTDFTLTISSLQPEDFATYYCQQYSSFPTTFGQGTKVEIK
modifications: MMAF via MC-VC-PABC linker
Regarding B1, the “tumor control and survival, + IR” value in the data set on B16 tumors (B16, 2.5 nmoles ADC x 2 doses + IR 5 Gy x 3) is reported as “CDX3379-MMAE proved to be superior to CDX3379-MMAF”. The “Mouse survival, status” value in the data set with B16 tumors (with IR, individual mice, status at the day, Figure 3h) is listed as 1.
